Publication PMC9456491, “Targeting the Mitochondrial Protein VDAC1 as a Potential Therapeutic Strategy in ALS” (International Journal of Molecular Sciences, 2022)

Experiments:
VDAC1 [1] = test system: VDAC1; parameters: method as in PMID 27738100, PMID 30293774, PMID 31857488, PMID 34217890; details: ref [49], [43], [44], [45]; cited from earlier work
[2] = test system: mutant SOD1^G93A transgenic mice; assay: SOD1^G93A mouse ALS model, drinking water treatment; format: in vivo; details: SOD1^G93A female mice, drinking water 0.0625 mg/mL, about 20 mg/kg daily; n = 10; vs DMSO
Method: (§1) Mutant SOD1^G93A transgenic mice (B6SJL-TgN-SOD1-G93A-1Gur) were obtained from The Jackson Laboratory (Bar Harbor, ME, USA) for the experiments. All experiments were approved by the Animal Care and Use Committee of Ben-Gurion University of the Negev, as required by Israeli legislation, and all efforts were taken to minimize animal suffering.
VBIT-4 and VBIT-12 were dissolved in DMSO (80 mg/mL) and then diluted in drinking water while being added in a dropwise manner into the acidic water to a final concentration of 0.0625 mg/mL. Considering an estimated daily water consumption of a 25 g mouse as 6–8 mL per mouse, the daily dose of VBIT-4 and VBIT-12 was determined. Assuming a mouse drinks about 8 mL of water daily, it consumed 20 mg/kg of the compound. Control untreated WT mice received water containing DMSO (0.36%) at the final concentration as in VBIT-4 or VBIT-12 drinking solutions. Mutant SOD1^G93A female mice were randomly divided to receive drinking water containing VBIT-4, VBIT-12, or DMSO for the control. Water consumption was verified daily.
Mean age of disease onset, defined as the time when mice reached peak body weight (A, B), and disease end stage, defined as the time when the mouse could not right itself within 20 s when placed on its side (C, D) of mutant SOD1G93A mice without (control, n = 10, blue) and with treatment of VBIT‐4 (n = 10, red) or VBIT‐12 (n = 10, green) through drinking water. The results are the means ± SD. (E–G) Mean (± SD) duration of early disease (from onset to 10% weight loss) (E), duration of late disease (from 10% weight loss to end stage) (F), and disease progression (from onset to end stage) (G). At each time point, the p‐ value was determined by a Student’s t‐test. Error bars denote SDs. Plot of averaged forelimb (H) and hindlimb (I) grip strength for SOD1G93A female mice untreated (n = 10, blue), treated with VBIT‐4 (n = 10, red), or treated with VBIT‐12 (n = 10, green) through the drinking water. SOD1G93A mice were monitored up to the end stage. The untreated SOD1G93A mice received water with the same concentration of DMSO as controls. At each time point, the p‐value was determined by a Student’s t‐test. Error bars denote SDs.
Table S1. Antibodies used in the study

[3] = test system: iPSC-derived motor neurons from ALS patients carrying mutations in TDP-43; parameters: method as in PMID 33031745; details: TDP-43 mutations, ref [58]; cited from earlier work
[4] = test system: release of mitochondrial DNA (mtDNA); cGAS/STING; parameters: method as in PMID 34217890; details: ref [45]; cited from earlier work
VDAC1 [5] = assay: VDAC1 oligomerization in spinal cord mitochondria (EGS crosslinking); format: biochemical; details: spinal cord mitochondria 1 mg/mL from SOD1^G93A mice, VBIT-4 20 μM, 10 min pre-incubation, PBS pH 8.3, 20 min, 30 °C, immunoblot, dimer quantification, n = 3
Method: (§2) Figure 3 VDAC1 oligomerization is increased in mutant SOD1^G93A spinal cord mitochondria. […] A cell viability analysis was performed using the CellTiter 96 AQueous One-Solution cell proliferation assay using a plate reader at 490 nm. (B,C) Spinal cord mitochondria (1 mg/mL) from non-transgenic, SOD1^WT or SOD1^G93A rats were incubated for 10 min at 30 °C in 10 mM Tricine, pH 8.2, with the indicated concentration of the crosslinking reagent EGS (B) or DSP (C). Sample buffer for electrophoresis containing 2-mercaptoethanol, except for DSP (S-S-containing reagent), was added, and the samples were subjected to SDS/PAGE (10% gel) and immunoblot analysis using anti-VDAC1 antibodies. (D,E) Spinal cord mitochondria (1 mg/mL, n = 3) from non-transgenic or SOD1^G93A mice were incubated for 20 min at 30 °C in PBS, pH 8.3, with the indicated concentration of EGS, and subjected to SDS-PAGE (10%), immunoblotting (D), and quantitative analysis (E). (F,G) Spinal cord mitochondria isolated from SOD1^G93A mice were pre-incubated with VBIT-4 (10 min, 20 μM) and subjected to cross linking as described in D. Samples were subjected to SDS/PAGE 4–15% gradient gel and immunoblotting using anti-VDAC1 antibodies (F) and to dimer quantitative analysis (G). VDAC1 dimer levels were quantified using ImageJ software. The positions of VDAC1 monomers, dimers, trimers, tetramers, and higher oligomers are indicated. […]

mice = details: mouse, in vivo; cited from earlier work
From the text: Mutant SOD1^G93A female mice were divided into three groups (10 mice per group): a control group (DMSO), VBIT-4-, and VBIT-12-treated groups.

VDAC1 oligomerization = details: ref [49]; cited from earlier work
[6] = test system: motor-neuron-like NSC-34 cells expressing human SOD1^G93A; assay: Viability of NSC-34 cells expressing mutant SOD1^G93A; format: cell-based; details: NSC-34, human SOD1^G93A; VBIT-12 15 µM, 12 h, 24 h post-transfection; 490 nm; n = 3, means ± SEM
Method: as §2

[7] = test system: mutant SOD1^G93A transgenic mice; assay: SOD1^G93A mouse ALS model, IP treatment; format: in vivo
Method: Mean age of disease onset, defined as the time when mice reached peak body weight as a function of time (A,B), and disease end stage, defined as the time when the mouse could not right itself within 20 s when placed on its side (C,D) considering mutant SOD1^G93A mice IP-injected every second day with 200 µL DMSO 4% (control, n = 10, blue) or with VBIT-12 (26 mg/kg) (n = 10, green). The results are the means ± SD. (E–G) The means ± SD for the duration of early disease (from onset to 10% weight loss) (E), duration of late disease (from 10% weight loss to end stage) (F), and disease progression (from onset to end stage) (G) are presented. Plots of the averaged forelimb (H) and hindlimb (I) grip strength for SOD1^G93A female mice untreated (n = 10, blue) or treated with VBIT-12 (n = 10, green). SOD1^G93A mice were monitored up to the end stage. At each time point, the p-value was determined by Student’s t-test with SD. * p < 0.05; ns, non-significant.
as §1
For intraperitoneal (IP) injection, VBIT-12 (80 mg/mL) in DMSO was diluted with saline, pH 7.0, to a final concentration of 3.25 mg/mL. Mice received 200 µL by IP injection resulting in a final VBIT-12 concentration of ~26 mg/Kg. VBIT-12 was IP injected every second day starting from day 60 for 12 weeks, and then the VBIT-12 final concentration was reduced to ~13 mg/Kg. The control group was IP injected with around 200 µL of DMSO (4%).

[8] = SOD1^G93A female mice, IP 26 mg/kg every other day from day 60, then ~13 mg/Kg, n = 10, during disease progression, Student's t-test
[9] = SOD1^G93A mice, IP 26 mg/kg every other day from day 60 for 12 weeks, then ~13 mg/Kg, n = 10, vs DMSO 4%

| Structure (SMILES) | inhibition of VDAC1 conductance (VDAC1 [1]) | disease onset (peak body weight) [2] | survival (disease end stage) [2] | prevention of cytosolic accumulation of mtDNA and inflammation [3] | inhibition of mtDNA release and inflammation [4] | inhibition of VDAC1 oligomerization (VDAC1 [5]) | tolerability (mice) | effect on cells under physiological conditions (VDAC1 oligomerization) | prevention of VDAC1 oligomerization and apoptotic cell death (VDAC1 oligomerization) | prevention of cytosolic Ca^2+ elevation and ROS production (VDAC1 oligomerization) | muscle endurance, hindlimb grip strength [2] | prevention of mutant SOD1 cell toxicity (cell survival) [6] | forelimb grip (pulling) strength [7, 8] | hindlimb grip (pulling) strength [7, 8] | maintenance of limb muscle strength over time ([7]; SOD1^G93A mice, IP 26 mg/kg every other day from day 60, then ~13 mg/Kg, n = 10, vs DMSO 4%) | disease onset [7, 9] | survival [7, 9] | muscle function and survival (summary) ([7]; SOD1^G93A transgenic mice, "daily treatment" as worded in the discussion) |
| --- | --- | --- | --- | --- | --- | --- | --- | --- | --- | --- | --- | --- | --- | --- | --- | --- | --- | --- |
| O=C(CC(CO)N1CCN(c2ccc(OC(F)(F)F)cc2)CC1)Nc1ccc(Cl)cc1 (stereo not drawn) [VBIT-4] | inhibit VDAC1 conductance | no effect on disease onset | no effect on disease onset (Figure S3A,B) or survival | prevented the cytosolic accumulation of mtDNA and inflammation | inhibit the release of mitochondrial DNA (mtDNA) via preventing VDAC1 oligomerization and inhibiting inflammation | inhibited the oligomerization of VDAC1 | well tolerated in mice | no effect on cells under physiological conditions | prevent both VDAC1 oligomerization and apoptotic cell death | prevent VDAC1 oligomerization, and, thereby, apoptosis and apoptosis-associated processes such as cytosolic Ca^2+ elevation and ROS production | – | – | – | – | – | – | – | – |
| O=C(O)CNC(=O)C1(Nc2ccccc2)CCN(Cc2cccc3ccccc23)CC1 [VBIT-12] | inhibit VDAC1 conductance | no effect on disease onset | no effect on disease onset (Figure S3A,B) or survival | – | – | – | – | no effect on cells under physiological conditions | prevent both VDAC1 oligomerization and apoptotic cell death | prevent VDAC1 oligomerization, and, thereby, apoptosis and apoptosis-associated processes such as cytosolic Ca^2+ elevation and ROS production | some benefit on muscle endurance as measured by grip strength in the hindlimbs | partially prevented the mutant SOD1 cell toxicity effect | significantly greater pulling strength | significantly greater pulling strength | maintained their limb muscle strength for a significantly more extended period of time | positive tendency in delaying disease onset (Figure 5A,B) and survival of SOD1^G93A mice, although this was not statistically significant | positive tendency in delaying disease onset (Figure 5A,B) and survival of SOD1^G93A mice, although this was not statistically significant | significantly improved muscle function, without extending survival |
